{
  "source": "patent US20230365592A1",
  "about": "(Agios Pharmaceuticals, Inc., priority 2022, published 2023)",
  "data": [
    {"biological_target": "T1, human PAH with the R408W mutation (Homo sapiens, UniProt P00439, R408W)", "T1 construct": "expressed in transfected cells", "T1 sequence (P00439 1-452 R408W)": "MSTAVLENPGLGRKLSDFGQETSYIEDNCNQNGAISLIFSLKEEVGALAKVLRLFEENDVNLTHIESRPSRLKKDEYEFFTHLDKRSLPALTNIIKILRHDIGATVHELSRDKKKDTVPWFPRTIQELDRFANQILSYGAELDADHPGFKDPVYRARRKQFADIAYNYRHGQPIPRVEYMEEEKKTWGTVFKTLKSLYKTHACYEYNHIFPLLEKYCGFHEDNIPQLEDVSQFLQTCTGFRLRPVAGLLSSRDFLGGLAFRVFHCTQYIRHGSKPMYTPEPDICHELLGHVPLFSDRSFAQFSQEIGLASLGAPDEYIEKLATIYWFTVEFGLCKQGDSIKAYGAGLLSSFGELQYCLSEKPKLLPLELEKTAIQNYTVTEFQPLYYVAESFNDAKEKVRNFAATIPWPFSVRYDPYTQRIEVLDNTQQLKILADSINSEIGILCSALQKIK", "assay": "Cell Based Phenylalanine Flux Assay;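 note: after compound treatment, cells received sepiapterin plus isotope-labelled Phenylalanine for 4 hours, then labelled Tyrosine in the medium was quantified, 10-point 2-fold dilution series run in duplicate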", "conditions": "A375 cells expressing human PAH R408W; 24 hrs compound incubation; 13C-Tyrosine by LC-MS; average where tested multiple times; read-out: AC50", "units": {"AC50": "µM"}, "values": [
      {"smiles": "Cc1nc([C@H](C)O)oc1C(=O)N1CCc2[nH]cnc2[C@H]1c1cc2cccc(C(F)(F)F)n2n1", "note": "[Example 2422, (2-((S)-1-hydroxyethyl)-4-methyloxazol-5-yl)((S)-4-(7-(trifluoromethyl)pyrazolo[1,5-a]pyridin-2-yl)-6,7-dihydro-1H-imidazo[4,5-c]pyridin-5(4H)-yl)methanone]", "AC50": "1 to 5"},
      {"smiles": "O=C(c1cnn2ccccc12)N1CCc2[nH]cnc2[C@H]1c1cc2cccc(Cl)n2n1", "note": "[Example 2424, (S)-(4-(7-chloropyrazolo[1,5-a]pyridin-2-yl)-6,7-dihydro-1H-imidazo[4,5-c]pyridin-5(4H)-yl)(pyrazolo[1,5-a]pyridin-3-yl)methanone]", "AC50": "1 to 5"},
      {"smiles": "O=C(c1nnc(-c2cnn(C(F)(F)F)c2)o1)N1CCc2[nH]cnc2[C@H]1c1cc2ccccn2n1", "note": "[Example 2426, (S)-(4-(pyrazolo[1,5-a]pyridin-2-yl)-6,7-dihydro-1H-imidazo[4,5-c]pyridin-5(4H)-yl)(5-(1-(trifluoromethyl)-1H-pyrazol-4-yl)-1,3,4-oxadiazol-2-yl)methanone]", "AC50": "1 to 5"},
      {"smiles": "O=C(c1nnc(-c2cnn(C(F)(F)F)c2)o1)N1CCc2[nH]cnc2[C@@H]1c1cc2ccccn2n1", "note": "[Example 2427, (R)-(4-(pyrazolo[1,5-a]pyridin-2-yl)-6,7-dihydro-1H-imidazo[4,5-c]pyridin-5(4H)-yl)(5-(1-(trifluoromethyl)-1H-pyrazol-4-yl)-1,3,4-oxadiazol-2-yl)methanone]", "AC50": "> 5"},
      {"smiles": "O=C(c1nnc(-c2cnn(C(F)(F)F)c2)o1)N1CCc2[nH]cnc2[C@@H]1c1cc2cccc(C(F)(F)F)n2n1", "note": "[Example 2429, (R)-(5-(1-(trifluoromethyl)-1H-pyrazol-4-yl)-1,3,4-oxadiazol-2-yl)(4-(7-(trifluoromethyl)pyrazolo[1,5-a]pyridin-2-yl)-6,7-dihydro-1H-imidazo[4,5-c]pyridin-5(4H)-yl)methanone]", "AC50": "1 to 5"},
      {"smiles": "O=C(c1nnc(C2CCC2)o1)N1CCc2[nH]cnc2[C@H]1c1cc2cccc(C(F)(F)F)n2n1", "note": "[Example 2430, (S)-(5-cyclobutyl-1,3,4-oxadiazol-2-yl)(4-(7-(trifluoromethyl)pyrazolo[1,5-a]pyridin-2-yl)-6,7-dihydro-1H-imidazo[4,5-c]pyridin-5(4H)-yl)methanone]", "AC50": "1 to 5"},
      {"smiles": "O=C(c1nnc(C2CCC2)o1)N1CCc2[nH]cnc2[C@@H]1c1cc2cccc(C(F)(F)F)n2n1", "note": "[Example 2431, (R)-(5-cyclobutyl-1,3,4-oxadiazol-2-yl)(4-(7-(trifluoromethyl)pyrazolo[1,5-a]pyridin-2-yl)-6,7-dihydro-1H-imidazo[4,5-c]pyridin-5(4H)-yl)methanone]", "AC50": "1 to 5"},
      {"smiles": "Fc1cccn2nc([C@@H]3c4nc[nH]c4CCN3c3nnc(C4CC4)o3)cc12", "note": "[Example 2433, (S)-2-cyclopropyl-5-(4-(4-fluoropyrazolo[1,5-a]pyridin-2-yl)-6,7-dihydro-1H-imidazo[4,5-c]pyridin-5(4H)-yl)-1,3,4-oxadiazole]", "AC50": "1 to 5"},
      {"smiles": "Cn1cc(-c2ccc3c(C(=O)N4CCc5[nH]cnc5[C@H]4c4cc5c(F)cccn5n4)cnn3c2)cn1", "note": "[Example 2434, (S)-(4-(4-fluoropyrazolo[1,5-a]pyridin-2-yl)-6,7-dihydro-1H-imidazo[4,5-c]pyridin-5(4H)-yl)(6-(1-methyl-1H-pyrazol-4-yl)pyrazolo[1,5-a]pyridin-3-yl)methanone]", "AC50": "1 to 5"},
      {"smiles": "Cn1cc(-c2ccc3c(C(=O)N4CCc5[nH]cnc5[C@@H]4c4cc5c(F)cccn5n4)cnn3c2)cn1", "note": "[Example 2435, (R)-(4-(4-fluoropyrazolo[1,5-a]pyridin-2-yl)-6,7-dihydro-1H-imidazo[4,5-c]pyridin-5(4H)-yl)(6-(1-methyl-1H-pyrazol-4-yl)pyrazolo[1,5-a]pyridin-3-yl)methanone]", "AC50": "> 5"},
      {"smiles": "COCc1ccc2c(C(=O)N3CCc4[nH]cnc4[C@H]3c3cc4c(C)cccn4n3)cnn2c1", "note": "[Example 2436, (S)-(6-(methoxymethyl)pyrazolo[1,5-a]pyridin-3-yl)(4-(4-methylpyrazolo[1,5-a]pyridin-2-yl)-6,7-dihydro-1H-imidazo[4,5-c]pyridin-5(4H)-yl)methanone]", "AC50": "1 to 5"},
      {"smiles": "COCc1ccc2c(C(=O)N3CCc4[nH]cnc4[C@@H]3c3cc4c(C)cccn4n3)cnn2c1", "note": "[Example 2437, (R)-(6-(methoxymethyl)pyrazolo[1,5-a]pyridin-3-yl)(4-(4-methylpyrazolo[1,5-a]pyridin-2-yl)-6,7-dihydro-1H-imidazo[4,5-c]pyridin-5(4H)-yl)methanone]", "AC50": "> 5"},
      {"smiles": "Cn1cc(-c2ccc3c(C(=O)N4CCc5[nH]cnc5[C@H]4c4cc5cccc(C(F)(F)F)n5n4)cnn3c2)cn1", "note": "[Example 2438, (S)-(6-(1-methyl-1H-pyrazol-4-yl)pyrazolo[1,5-a]pyridin-3-yl)(4-(7-(trifluoromethyl)pyrazolo[1,5-a]pyridin-2-yl)-6,7-dihydro-1H-imidazo[4,5-c]pyridin-5(4H)-yl)methanone]", "AC50": "1 to 5"},
      {"smiles": "FC(F)(F)c1cccc2cc([C@@H]3c4nc[nH]c4CCN3c3nnc(-c4ccccn4)o3)nn12", "note": "[Example 2440, (S)-2-(pyridin-2-yl)-5-(4-(7-(trifluoromethyl)pyrazolo[1,5-a]pyridin-2-yl)-6,7-dihydro-1H-imidazo[4,5-c]pyridin-5(4H)-yl)-1,3,4-oxadiazole]", "AC50": "1 to 5"},
      {"smiles": "Cc1nnc(N2CCc3[nH]cnc3[C@H]2c2cc3c(C)cccn3n2)o1", "note": "[Example 2443, (S)-2-methyl-5-(4-(4-methylpyrazolo[1,5-a]pyridin-2-yl)-6,7-dihydro-1H-imidazo[4,5-c]pyridin-5(4H)-yl)-1,3,4-oxadiazole]", "AC50": "1 to 5"},
      {"smiles": "Cn1cc(-c2nnc(C(=O)N3CCc4[nH]cnc4[C@H]3c3cc4c(OC(F)F)cccn4n3)o2)cn1", "note": "[Example 2445, (S)-(4-(4-(difluoromethoxy)pyrazolo[1,5-a]pyridin-2-yl)-6,7-dihydro-1H-imidazo[4,5-c]pyridin-5(4H)-yl)(5-(1-methyl-1H-pyrazol-4-yl)-1,3,4-oxadiazol-2-yl)methanone]", "AC50": "1 to 5"},
      {"smiles": "COc1cccn2nc([C@@H]3c4nc[nH]c4CCN3C(=O)c3nnc(-c4cnn(C(F)F)c4)o3)cc12", "note": "[Example 2446, (S)-(5-(1-(difluoromethyl)-1H-pyrazol-4-yl)-1,3,4-oxadiazol-2-yl)(4-(4-methoxypyrazolo[1,5-a]pyridin-2-yl)-6,7-dihydro-1H-imidazo[4,5-c]pyridin-5(4H)-yl)methanone]", "AC50": "1 to 5"},
      {"smiles": "COc1cccn2nc([C@H]3c4nc[nH]c4CCN3C(=O)c3nnc(-c4cnn(C(F)F)c4)o3)cc12", "note": "[Example 2447, (R)-(5-(1-(difluoromethyl)-1H-pyrazol-4-yl)-1,3,4-oxadiazol-2-yl)(4-(4-methoxypyrazolo[1,5-a]pyridin-2-yl)-6,7-dihydro-1H-imidazo[4,5-c]pyridin-5(4H)-yl)methanone]", "AC50": "> 5"},
      {"smiles": "O=C(c1nnc(-c2cnccn2)o1)N1CCc2[nH]cnc2[C@H]1c1cc2c(OC(F)F)cccn2n1", "note": "[Example 2448, (S)-(4-(4-(difluoromethoxy)pyrazolo[1,5-a]pyridin-2-yl)-6,7-dihydro-1H-imidazo[4,5-c]pyridin-5(4H)-yl)(5-(pyrazin-2-yl)-1,3,4-oxadiazol-2-yl)methanone]", "AC50": "1 to 5"},
      {"smiles": "O=C(c1nnc(-c2cnccn2)o1)N1CCc2[nH]cnc2[C@@H]1c1cc2c(OC(F)F)cccn2n1", "note": "[Example 2449, (R)-(4-(4-(difluoromethoxy)pyrazolo[1,5-a]pyridin-2-yl)-6,7-dihydro-1H-imidazo[4,5-c]pyridin-5(4H)-yl)(5-(pyrazin-2-yl)-1,3,4-oxadiazol-2-yl)methanone]", "AC50": "> 5"},
      {"smiles": "COc1ccc2c(C(=O)N3CCc4[nH]cnc4[C@H]3c3cc4c(C)cccn4n3)cnn2c1", "note": "[Example 2450, (S)-(6-methoxypyrazolo[1,5-a]pyridin-3-yl)(4-(4-methylpyrazolo[1,5-a]pyridin-2-yl)-6,7-dihydro-1H-imidazo[4,5-c]pyridin-5(4H)-yl)methanone]", "AC50": "1 to 5"},
      {"smiles": "COc1ccc2c(C(=O)N3CCc4[nH]cnc4[C@@H]3c3cc4c(C)cccn4n3)cnn2c1", "note": "[Example 2451, (R)-(6-methoxypyrazolo[1,5-a]pyridin-3-yl)(4-(4-methylpyrazolo[1,5-a]pyridin-2-yl)-6,7-dihydro-1H-imidazo[4,5-c]pyridin-5(4H)-yl)methanone]", "AC50": "> 5"},
      {"smiles": "O=C(c1cnn2cc(-c3ccccn3)ccc12)N1CCc2[nH]cnc2[C@H]1c1cc2cccc(C(F)(F)F)n2n1", "note": "[Example 2452, (S)-(6-(pyridin-2-yl)pyrazolo[1,5-a]pyridin-3-yl)(4-(7-(trifluoromethyl)pyrazolo[1,5-a]pyridin-2-yl)-6,7-dihydro-1H-imidazo[4,5-c]pyridin-5(4H)-yl)methanone]", "AC50": "1 to 5"},
      {"smiles": "Clc1cccc2cc([C@@H]3c4nc[nH]c4CCN3c3ncccn3)nn12", "note": "[Example 2454, (S)-4-(7-chloropyrazolo[1,5-a]pyridin-2-yl)-5-(pyrimidin-2-yl)-4,5,6,7-tetrahydro-1H-imidazo[4,5-c]pyridine]", "AC50": "1 to 5"},
      {"smiles": "Clc1cccc2cc([C@H]3c4nc[nH]c4CCN3c3ncccn3)nn12", "note": "[Example 2455, (R)-4-(7-chloropyrazolo[1,5-a]pyridin-2-yl)-5-(pyrimidin-2-yl)-4,5,6,7-tetrahydro-1H-imidazo[4,5-c]pyridine]", "AC50": "1 to 5"},
      {"smiles": "Cc1nnc(N2CCc3[nH]cnc3[C@H]2c2cc3c(Cl)cccn3n2)o1", "note": "[Example 2456, (S)-2-(4-(4-chloropyrazolo[1,5-a]pyridin-2-yl)-6,7-dihydro-1H-imidazo[4,5-c]pyridin-5(4H)-yl)-5-methyl-1,3,4-oxadiazole]", "AC50": "1 to 5"}
    ]}
  ]
}
